Results from ChEMBL document CHEMBL4431297 (Medchemcomm, 2016).
Each block holds one compound with its values, some of them ahead of it. Calls of active or inactive are those of the source. The rule behind the calls is not given here.

Assays:
Format in all cases: protein-complex assay
[1] = test system: DNA gyrase (Escherichia coli), P0AES6+P0AES4 [UNDEFINED MUTATION]; experiment: Inhibition of Escherichia coli JMtacA/JMtacB DNA gyrase subunit A2B2 S83W mutant at 50 uM using relaxed pBR322 DNA as substrate incubated for 30 mins in presence of ATP by ethidium bromide staining based agarose gel electrophoresis
[2] = test system: DNA gyrase (Escherichia coli), P0AES6+P0AES4 [UNDEFINED MUTATION]; experiment: Inhibition of Escherichia coli JMtacA/JMtacB DNA gyrase subunit A2B2 S83W mutant at 50 to 300 uM using relaxed pBR322 DNA as substrate incubated for 30 mins in presence of ATP by ethidium bromide staining based agarose gel electrophoresis
[3] = biological target: T1, DNA gyrase (Escherichia coli) (UniProt P0AES6+P0AES4); experiment: (§1) Inhibition of wild type Escherichia coli DNA gyrase subunit A2B2 using supercoiled pBR322 DNA as substrate assessed as stabilization of enzyme-DNA cleavage complex by measuring linear DNA bands at 10 to 100 uM incubated for 30 mins in presence of proteinase K/SDS and in absence of ATP by ethidium bromide staining based agarose gel electrophoresis
[4] = biological target: DNA gyrase (Escherichia coli, UniProt P0AES4+P0AES6, S83W); experiment: (§2) Inhibition of Escherichia coli JMtacA/JMtacB DNA gyrase subunit A2B2 S83W mutant using relaxed pBR322 DNA as substrate incubated for 30 mins in presence of ATP by ethidium bromide staining based agarose gel electrophoresis
[5] = test system: DNA gyrase (Escherichia coli), P0AES6+P0AES4 [UNDEFINED MUTATION]; experiment: as §2
[6] = biological target: T1, DNA gyrase (Escherichia coli); experiment: Inhibition of wild type Escherichia coli DNA gyrase subunit A2B2 at 100 uM using relaxed pBR322 DNA as substrate incubated for 30 mins in presence of ATP by ethidium bromide staining based agarose gel electrophoresis
[7] = biological target: T1, DNA gyrase (Escherichia coli); experiment: as §1, with “at” for “at 10 to”
[8] = test system: DNA gyrase (Escherichia coli), P0AES6+P0AES4 [UNDEFINED MUTATION]; experiment: Inhibition of Escherichia coli JMtacA/JMtacB DNA gyrase subunit A2B2 S83W mutant at 100 uM using relaxed pBR322 DNA as substrate incubated for 30 mins in presence of ATP by ethidium bromide staining based agarose gel electrophoresis
[9] = biological target: T1, DNA gyrase (Escherichia coli); experiment: as §1, with “1” for “10 to 100”
[10] = biological target: T1, DNA gyrase (Escherichia coli); experiment: as §1, with “at 50” for “at 10”
[11] = test system: DNA gyrase (Escherichia coli), P0AES6+P0AES4 [UNDEFINED MUTATION]; experiment: Inhibition of Escherichia coli JMtacA/JMtacB DNA gyrase subunit A2B2 S83W mutant at 25 uM using relaxed pBR322 DNA as substrate incubated for 30 mins in presence of ATP by ethidium bromide staining based agarose gel electrophoresis
[12] = biological target: DNA gyrase (Escherichia coli, UniProt P0AES4+P0AES6); experiment: Inhibition of wild type Escherichia coli DNA gyrase subunit A2B2 using relaxed pBR322 DNA as substrate incubated for 30 mins in presence of ATP by ethidium bromide staining based agarose gel electrophoresis

- inhibition [1]: inactive
Structure (SMILES): CC(=O)Nc1cc2ccccc2oc1=O

- inhibition [2]: inactive
Structure (SMILES): Nc1cc2ccccc2oc1=O

Structure (SMILES): O=C(CCCCCCCCC(=O)N1CCN(c2cc3c(cc2F)c(=O)c(C(=O)O)cn3C2CC2)CC1)Nc1cc2ccccc2oc1=O
- inhibition [3]: Active
- IC50 [4]: 3 µM

Structure (SMILES): CCOC(=O)c1cn(C2CC2)c2cc(N3CCN(C(=O)CCCCCCCCC(=O)Nc4cc5ccccc5oc4=O)CC3)c(F)cc2c1=O
- inhibition [5]: inactive
- inhibition [6]: inactive

- inhibition [7]: Active
- inhibition [8]: inactive
Structure (SMILES): O=C(CCCCCCCCC(=O)N1CCN(c2cc3c(cc2F)c(=O)c(C(=O)O)cn3C2CC2)CC1)Nc1ccccc1

- inhibition [9]: inactive
Structure (SMILES): CC(=O)O[C@@H]1[C@@H](C)O[C@@H](c2ccc3c(c2O)[C@@H](O)[C@]24O[C@@]2(C3=O)[C@@]2(O)C(=O)C=C(C)C[C@@]2(O)C[C@@H]4O)C[C@H]1OC(=O)/C=C/C=C/C=C/C=C/C(=O)Nc1c(O)c2ccc(O)c(Cl)c2oc1=O

Structure (SMILES): COC(=O)/C=C/C=C/C=C/C=C/C(=O)Nc1c(O)c2ccc(O)c(Cl)c2oc1=O
- IC50 [4]: 70 µM

- inhibition [10]: Active
- inhibition [11]: inactive
Structure (SMILES): O=C(O)CCCCCCCCC(=O)N1CCN(c2cc3c(cc2F)c(=O)c(C(=O)O)cn3C2CC2)CC1

Structure (SMILES): CCOC(=O)c1cn(C2CC2)c2cc(N3CCN(C(=O)CCCCCCCCC(=O)Nc4ccccc4)CC3)c(F)cc2c1=O
- inhibition [5]: inactive
- inhibition [6]: inactive

Structure (SMILES): CCOC(=O)c1cn(C2CC2)c2cc(N3CCN(C(=O)CCCCCCCCC(=O)OC)CC3)c(F)cc2c1=O
- inhibition [5]: inactive
- inhibition [6]: inactive

Structure (SMILES): CCOC(=O)c1cn(C2CC2)c2cc(N3CCNCC3)c(F)cc2c1=O [CIPROFLOXACIN ETHYL ESTER]
- IC50 [12]: 10 µM
- inhibition [5]: Active

Structure (SMILES): CC(=O)O[C@@H]1[C@@H](C)O[C@@H](c2ccc3c(c2O)[C@@H](O)[C@]24O[C@@]2(C3=O)[C@@]2(O)C(=O)C=C(C)C[C@@]2(O)C[C@@H]4O)C[C@H]1OC(=O)/C=C/C=C/C=C/C=C/C(=O)O
- IC50 [4]: 50 µM
